Results as given in patent US11253517B2, “Small molecule regulators of steroid receptor coactivators and methods of use thereof” (BAYLOR COLLEGE OF MEDICINE, priority 2016, dated 2022).

Key:
CDK2/CyclinE1 = biological target: T1, CDK2/CyclinE1 (Homo sapiens, UniProt P24941); experiment: Kinase-Glo Luminescent Kinase Assay; format: biochemical
T1 construct: purchased Promega
Description: (§1) SI-12 was also tested for its ability to disrupt kinase activity. The effects of the compound were tested on a panel of 24 kinases using a Kinase-Glo Luminescent Kinase Assay system (Promega; Madison, Wis.). SI-12 was tested, at concentrations of 1000 nM, 50 nM, and 5 nM, for its ability to interfere with recombinant kinases in the assay system. The amount of ATP to ADP conversion in the presence of SI-12 was compared to a DMSO vehicle control. The values shown in Table 3 represent the percentage of kinase activity compared to a DMSO vehicle control.
(§2) In Table 3, “−” represents less than 20% inhibition; “+” represents from 20% to 40% inhibition; “++” represents from 40% to 60% inhibition; and “+++” represents greater than 60% inhibition.

AKT1 = biological target: T2, AKT1 (Homo sapiens, UniProt P31749); experiment: Kinase-Glo Luminescent Kinase Assay; format: biochemical
T2 construct: purchased Promega
T2 sequence (P31749 whole entry): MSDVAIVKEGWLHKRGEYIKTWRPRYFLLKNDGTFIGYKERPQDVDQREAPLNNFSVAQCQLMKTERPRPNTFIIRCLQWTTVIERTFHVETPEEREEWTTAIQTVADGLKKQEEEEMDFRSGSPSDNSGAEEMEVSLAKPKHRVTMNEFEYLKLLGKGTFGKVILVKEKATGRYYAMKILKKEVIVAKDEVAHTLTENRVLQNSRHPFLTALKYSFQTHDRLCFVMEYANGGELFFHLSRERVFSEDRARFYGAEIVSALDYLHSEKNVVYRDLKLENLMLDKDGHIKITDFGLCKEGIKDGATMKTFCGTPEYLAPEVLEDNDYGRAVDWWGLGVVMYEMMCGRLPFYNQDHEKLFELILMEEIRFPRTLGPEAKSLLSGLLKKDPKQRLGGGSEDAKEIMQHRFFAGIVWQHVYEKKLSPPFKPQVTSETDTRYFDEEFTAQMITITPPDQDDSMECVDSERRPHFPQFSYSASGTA
Description: as §1, §2

P38A = biological target: T3, P38A (Homo sapiens, UniProt Q16539); experiment: Kinase-Glo Luminescent Kinase Assay; format: biochemical
T3 construct: purchased Promega
T3 sequence (Q16539 2-360 limits assumed): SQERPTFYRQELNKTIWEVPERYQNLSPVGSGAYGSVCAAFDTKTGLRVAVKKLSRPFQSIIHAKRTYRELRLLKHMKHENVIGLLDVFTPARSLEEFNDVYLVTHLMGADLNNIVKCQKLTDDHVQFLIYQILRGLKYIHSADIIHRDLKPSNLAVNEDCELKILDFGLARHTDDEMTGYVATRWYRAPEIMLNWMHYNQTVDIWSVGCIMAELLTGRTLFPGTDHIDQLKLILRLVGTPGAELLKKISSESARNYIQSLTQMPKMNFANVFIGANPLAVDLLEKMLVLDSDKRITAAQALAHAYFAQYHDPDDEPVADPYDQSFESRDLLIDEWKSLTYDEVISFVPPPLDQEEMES
Description: as §1, §2

FGFR1 = biological target: T4, FGFR1 (Homo sapiens, UniProt P11362); experiment: Kinase-Glo Luminescent Kinase Assay; format: biochemical
T4 construct: purchased Promega
T4 sequence (P11362 22-822): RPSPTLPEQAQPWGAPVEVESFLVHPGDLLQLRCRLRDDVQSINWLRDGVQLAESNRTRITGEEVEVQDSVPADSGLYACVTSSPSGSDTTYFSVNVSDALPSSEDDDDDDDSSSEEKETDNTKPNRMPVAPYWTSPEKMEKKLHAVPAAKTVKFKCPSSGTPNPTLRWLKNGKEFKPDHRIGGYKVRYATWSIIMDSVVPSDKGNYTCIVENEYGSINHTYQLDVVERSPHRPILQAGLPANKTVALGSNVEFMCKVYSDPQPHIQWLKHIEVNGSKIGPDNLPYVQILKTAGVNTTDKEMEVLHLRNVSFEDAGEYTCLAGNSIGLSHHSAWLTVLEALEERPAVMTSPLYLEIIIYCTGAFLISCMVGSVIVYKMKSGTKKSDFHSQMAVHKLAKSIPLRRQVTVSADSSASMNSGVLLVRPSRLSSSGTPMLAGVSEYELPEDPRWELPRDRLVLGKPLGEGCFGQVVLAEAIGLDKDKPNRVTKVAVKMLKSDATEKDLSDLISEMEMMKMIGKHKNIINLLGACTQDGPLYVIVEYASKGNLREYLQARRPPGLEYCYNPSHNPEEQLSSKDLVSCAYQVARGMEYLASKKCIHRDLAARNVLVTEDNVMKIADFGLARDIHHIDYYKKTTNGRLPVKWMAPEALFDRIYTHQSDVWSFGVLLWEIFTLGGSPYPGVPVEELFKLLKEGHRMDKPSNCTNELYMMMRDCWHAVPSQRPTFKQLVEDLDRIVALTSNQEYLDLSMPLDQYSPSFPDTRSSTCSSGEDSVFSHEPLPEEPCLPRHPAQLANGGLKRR
Description: as §1, §2

AMPK A1 /B1/G2 = biological target: T5, AMPK A1 /B1/G2 (Homo sapiens, UniProt Q13131); experiment: Kinase-Glo Luminescent Kinase Assay; format: biochemical
T5 construct: purchased Promega
T5 sequence (Q13131 whole entry): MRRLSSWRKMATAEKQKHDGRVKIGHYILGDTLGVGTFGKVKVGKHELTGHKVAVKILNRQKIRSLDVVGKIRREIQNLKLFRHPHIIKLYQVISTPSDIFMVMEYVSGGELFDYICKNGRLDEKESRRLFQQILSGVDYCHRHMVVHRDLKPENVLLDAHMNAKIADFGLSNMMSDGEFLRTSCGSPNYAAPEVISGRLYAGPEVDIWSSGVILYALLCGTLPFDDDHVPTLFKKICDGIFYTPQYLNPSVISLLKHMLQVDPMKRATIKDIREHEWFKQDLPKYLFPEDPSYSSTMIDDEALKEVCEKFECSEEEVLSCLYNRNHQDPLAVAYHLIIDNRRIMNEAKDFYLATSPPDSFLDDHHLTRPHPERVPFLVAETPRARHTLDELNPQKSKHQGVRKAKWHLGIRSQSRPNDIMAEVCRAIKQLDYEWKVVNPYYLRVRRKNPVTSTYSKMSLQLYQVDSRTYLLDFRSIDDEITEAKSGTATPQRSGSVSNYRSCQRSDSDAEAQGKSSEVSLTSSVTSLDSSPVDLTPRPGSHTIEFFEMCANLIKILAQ
T5 sequence (Q9Y478 whole entry partner): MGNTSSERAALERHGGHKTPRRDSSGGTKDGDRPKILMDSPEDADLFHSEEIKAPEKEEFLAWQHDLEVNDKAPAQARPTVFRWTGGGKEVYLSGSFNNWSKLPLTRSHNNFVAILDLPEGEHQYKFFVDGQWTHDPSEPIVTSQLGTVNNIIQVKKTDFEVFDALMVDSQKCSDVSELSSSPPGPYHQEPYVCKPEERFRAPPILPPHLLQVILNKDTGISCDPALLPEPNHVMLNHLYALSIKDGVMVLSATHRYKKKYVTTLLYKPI
T5 sequence (Q9UGJ0 whole entry partner): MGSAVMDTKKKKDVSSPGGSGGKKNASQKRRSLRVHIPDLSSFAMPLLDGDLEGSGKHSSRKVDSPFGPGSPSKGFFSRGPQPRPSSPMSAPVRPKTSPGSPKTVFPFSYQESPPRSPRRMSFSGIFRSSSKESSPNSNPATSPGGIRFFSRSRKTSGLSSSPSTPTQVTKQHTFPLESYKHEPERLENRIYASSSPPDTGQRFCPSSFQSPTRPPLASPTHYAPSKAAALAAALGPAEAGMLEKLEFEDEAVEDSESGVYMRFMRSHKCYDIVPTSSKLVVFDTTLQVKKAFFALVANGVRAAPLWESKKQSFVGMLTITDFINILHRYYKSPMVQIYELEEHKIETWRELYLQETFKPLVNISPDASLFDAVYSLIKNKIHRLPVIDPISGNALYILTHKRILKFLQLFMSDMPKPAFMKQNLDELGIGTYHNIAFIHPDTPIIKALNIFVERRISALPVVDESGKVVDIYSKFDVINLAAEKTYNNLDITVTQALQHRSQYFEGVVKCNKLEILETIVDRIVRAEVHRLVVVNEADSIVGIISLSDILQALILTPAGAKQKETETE
Description: as §1, §2

GSK3B = biological target: T6, GSK3B (Homo sapiens, UniProt P49841); experiment: Kinase-Glo Luminescent Kinase Assay; format: biochemical
T6 construct: purchased Promega
T6 sequence (P49841 whole entry): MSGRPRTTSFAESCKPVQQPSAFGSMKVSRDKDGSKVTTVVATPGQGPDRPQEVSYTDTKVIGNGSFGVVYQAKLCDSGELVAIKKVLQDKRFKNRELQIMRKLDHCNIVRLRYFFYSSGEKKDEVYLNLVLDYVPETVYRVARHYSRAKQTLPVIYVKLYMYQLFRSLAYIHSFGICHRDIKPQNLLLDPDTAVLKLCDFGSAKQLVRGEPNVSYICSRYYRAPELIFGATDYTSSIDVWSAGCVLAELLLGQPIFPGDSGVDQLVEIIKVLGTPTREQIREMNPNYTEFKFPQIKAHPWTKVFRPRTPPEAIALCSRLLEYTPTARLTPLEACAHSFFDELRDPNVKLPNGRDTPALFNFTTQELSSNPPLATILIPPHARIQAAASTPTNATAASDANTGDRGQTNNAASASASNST
Description: as §1, §2

PKCa = biological target: T7, PKCa (Homo sapiens, UniProt P17252); experiment: Kinase-Glo Luminescent Kinase Assay; format: biochemical
T7 construct: purchased Promega
Description: as §1, §2

IKKb = biological target: T8, IKKb (Homo sapiens, UniProt O14920); experiment: Kinase-Glo Luminescent Kinase Assay; format: biochemical
T8 construct: purchased Promega
T8 sequence (O14920 1-756): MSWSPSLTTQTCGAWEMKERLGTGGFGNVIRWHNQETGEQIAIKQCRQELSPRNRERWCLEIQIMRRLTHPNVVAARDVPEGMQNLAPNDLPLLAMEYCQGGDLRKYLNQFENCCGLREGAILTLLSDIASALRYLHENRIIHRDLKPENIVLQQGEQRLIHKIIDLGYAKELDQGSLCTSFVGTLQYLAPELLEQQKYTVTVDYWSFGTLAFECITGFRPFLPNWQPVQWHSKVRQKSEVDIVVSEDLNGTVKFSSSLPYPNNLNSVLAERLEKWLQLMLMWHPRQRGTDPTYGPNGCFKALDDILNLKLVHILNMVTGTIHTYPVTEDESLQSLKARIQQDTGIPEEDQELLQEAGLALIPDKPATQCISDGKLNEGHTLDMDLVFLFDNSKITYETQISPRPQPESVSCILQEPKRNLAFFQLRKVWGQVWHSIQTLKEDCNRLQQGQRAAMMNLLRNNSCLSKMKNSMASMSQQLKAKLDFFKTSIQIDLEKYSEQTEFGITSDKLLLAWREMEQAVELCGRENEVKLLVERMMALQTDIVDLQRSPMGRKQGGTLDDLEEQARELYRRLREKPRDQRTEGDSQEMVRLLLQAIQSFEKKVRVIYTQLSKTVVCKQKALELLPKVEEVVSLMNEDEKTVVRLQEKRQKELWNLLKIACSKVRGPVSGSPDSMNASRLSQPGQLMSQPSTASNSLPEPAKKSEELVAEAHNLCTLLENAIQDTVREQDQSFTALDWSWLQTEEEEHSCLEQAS
Description: as §1, §2

MDA-MB-231 tumor cells = experiment: MDA-MB-231 xenograft model (luciferase imaging); format: in vivo, Nude mice; conditions: 4 mg/kg 5 times per week, five-week period
Description: The quantitated luciferase activity is shown in the graph in FIG. 4.
SI-12 was evaluated in a MDA-MB-231 model where the MDA-MB-231 tumor cells were stably transfected with a luciferase expression vector. Nude mice had 2.5×10^5 tumor cells implanted into cleared mammary fat pads of nude mice. The progression of tumors in control and SI-12 treated animals (4 mg/kg 5 times per week) was followed by luciferase imaging of the mice over a five-week period.

panel of 24 kinases = experiment: Kinase-Glo Luminescent Kinase Assay, panel of 24 kinases; format: biochemical; conditions: 1000 nM, 50 nM and 5 nM, versus DMSO vehicle control
Description: as §1, §2

MCF-7 cells = experiment: IC50 in MCF-7 cells, 72 hours incubation; format: cell-based
Description: The compounds described herein were synthesized as described in Example 1. The IC50 values were measured in MDA-MB-468, BT-474, and MCF-7 cells by incubating a series of concentrations of the corresponding compounds for 72 hours.
In Tables 1 and 2, “−” represents IC50 or EC50 values greater than 10 μM; “+” represents IC50 or EC50 values from greater than 1 μM to 10 μM; “++” represents IC50 or EC50 values from 0.1 μM to 1 μM; and “+++” represents IC50 or EC50 values less than 0.1 μM.

CC(=NNc1nc2cc(F)c(F)cc2n1C)c1ccc(F)cn1 [SI-12]
CDK2/CyclinE1 kinase inhibition (CDK2/CyclinE1; 5 nM): − (less than 20% inhibition)
CDK2/CyclinE1 kinase inhibition (CDK2/CyclinE1; 50 nM): − (less than 20% inhibition)
CDK2/CyclinE1 kinase inhibition (CDK2/CyclinE1; 1000 nM): − (less than 20% inhibition)
AKT1 kinase inhibition (AKT1; 5 nM): − (less than 20% inhibition)
AKT1 kinase inhibition (AKT1; 50 nM): − (less than 20% inhibition)
AKT1 kinase inhibition (AKT1; 1000 nM): − (less than 20% inhibition)
P38A kinase inhibition (P38A; 5 nM): − (less than 20% inhibition)
P38A kinase inhibition (P38A; 50 nM): − (less than 20% inhibition)
P38A kinase inhibition (P38A; 1000 nM): − (less than 20% inhibition)
FGFR1 kinase inhibition (FGFR1; 5 nM): + (from 20% to 40% inhibition)
FGFR1 kinase inhibition (FGFR1; 50 nM): − (less than 20% inhibition)
FGFR1 kinase inhibition (FGFR1; 1000 nM): − (less than 20% inhibition)
AMPK A1 /B1/G2 kinase inhibition (AMPK A1 /B1/G2; 5 nM): − (less than 20% inhibition)
AMPK A1 /B1/G2 kinase inhibition (AMPK A1 /B1/G2; 50 nM): − (less than 20% inhibition)
AMPK A1 /B1/G2 kinase inhibition (AMPK A1 /B1/G2; 1000 nM): − (less than 20% inhibition)
GSK3B kinase inhibition (GSK3B; 5 nM): − (less than 20% inhibition)
GSK3B kinase inhibition (GSK3B; 50 nM): − (less than 20% inhibition)
GSK3B kinase inhibition (GSK3B; 1000 nM): − (less than 20% inhibition)
PKCa kinase inhibition (PKCa; 5 nM): − (less than 20% inhibition)
PKCa kinase inhibition (PKCa; 50 nM): − (less than 20% inhibition)
PKCa kinase inhibition (PKCa; 1000 nM): − (less than 20% inhibition)
IKKb kinase inhibition (IKKb; 5 nM): ++ (from 40% to 60% inhibition)
IKKb kinase inhibition (IKKb; 50 nM): +++ (greater than 60% inhibition)
IKKb kinase inhibition (IKKb; 1000 nM): +++ (greater than 60% inhibition)
luciferase expression at primary tumor and lung metastasis (whole body imaging) (MDA-MB-231 tumor cells): reduced luciferase expression at both the sites of the primary tumor and of MDA-MB-231 metastasis to the lung
tumor growth in MDA-MB-231 xenograft model (MDA-MB-231 tumor cells): can inhibit tumor growth
effects on kinase activity, panel overall (panel of 24 kinases): minimal effects on kinase activity
IC50 (MCF-7 cells): < 100 nM
